Measured values published in patent US20210338820A1, “PHARMACEUTICAL COMPOSITION COMPRISING ANTIEMETIC COMPOUNDS AND POLYORTHOESTER” (Heron Therapeutics, Inc., priority 2012, published 2021).

Experiments:
[1] = In-vitro release of formulation of fosaprepitant and granisetron (Example 6 formulation); format: physicochemical; conditions: 37° C.; for active agent released from the formulation: Example 6 formulation, PBS; for in vitro release proceeded in a linear fashion up to: Example 6 semi-solid polyorthoester formulation, phosphate buffered saline, HPLC, FIG. 1
Excerpt: In a fifth embodiment, a formulation as described in Example 6 was weighed into vials and filled with a phosphate buffered saline solution.
A formulation as described in Example 6 was weighed into vials and filled with a phosphate buffered saline solution.

[2] = In-vitro release of formulation of aprepitant and granisetron (Example 1 formulation); format: physicochemical; conditions: 37° C.; for active agent released from the formulation: Example 1 formulation, PBS + 2% CTAB; for in vitro release proceeded in a linear fashion up to: Example 1 semi-solid polyorthoester formulation, phosphate buffered saline + 2% CTAB, HPLC, FIG. 3
Description: In a first embodiment, 375 mg of aprepitant was dissolved in 1.3 g of a polyorthoester-compatible liquid excipient, dimethyl sulfoxide, and heated until completely dissolved. […] In a further embodiment, the formulation was weighed into vials and filled with a phosphate buffered saline solution and 2% CTAB (cetrimonium bromide). The vials were then stored at 37° C. Aliquots were taken daily and analyzed by HPLC to monitor for the release of granisetron and aprepitant from the formulation.
A formulation as described in Example 1 was weighed into vials and filled with a phosphate buffered saline solution and 2% CTAB (cetrimonium bromide). The vials were then stored at 37° C. Aliquots were taken daily and analyzed by HPLC to monitor for the release of granisetron and aprepitant from the formulation.

[3] = In vitro release of a formulation containing aprepitant (Example 3 formulation); format: physicochemical; conditions: Example 3 semi-solid polyorthoester formulation; PBS + 2% CTAB, 37° C., HPLC, FIG. 4
[4] = dog, in vivo, sc

With `C[C@@H](O[C@H]1OCCN(Cc2nc(O)n(P(=O)(O)O)n2)[C@H]1c1ccc(F)cc1)c1cc(C(F)(F)F)cc(C(F)(F)F)c1` [fosaprepitant] the “active agent released from the formulation” value (“active agent released” for short) ([1]; after about 60 hours) was “about 60%”, the “active agent released” value ([1]; at about 45 hours) was “about 25%” and the “in vitro release proceeded in a linear fashion up to” value (“in vitro release proceeded” below) [1] was “about 45 hours”.
With `CN1C2CCCC1CC(NC(=O)c1nn(C)c3ccccc13)C2` (centres unmarked) [granisetron] the “active agent released” value ([1]; after about 60 hours) was “about 80%”, the “active agent released” value ([1]; at about 45 hours) was “about 25%” and the “active agent released” value ([1]; at about 100 hours) was “Nearly all”. The “in vitro release proceeded” value [1] was “about 45 hours”, the “active agent released” value ([2]; at about 48 hours) was “about 65%” and the “active agent released” value ([2]; at about 144 hours) was “about 90%”. For the same molecule, the “in vitro release proceeded” value [2] was “about 48 hours”.
In the case of `C[C@@H](O[C@H]1OCCN(Cc2n[nH]c(=O)[nH]2)[C@H]1c1ccc(F)cc1)c1cc(C(F)(F)F)cc(C(F)(F)F)c1` [aprepitant], the “active agent released” value ([1]; at about 100 hours) is reported as “about 65%”, the “in vitro release proceeded” value [3] is reported as “about 72 hours” and the “active agent released” value ([2]; after about 120 hours) is reported as “about 90%”. For the same molecule, the “active agent released” value ([2]; at about 48 hours) was “about 65%”, the “active agent released” value ([2]; at about 144 hours) was “Essentially all” and the “in vitro release proceeded” value [2] was “about 48 hours”. For the same molecule, the “bioavailability (areas under the curves)” value [4] was “good bioavailability”.
